Test results from the CheMixHub ionic liquid set.
± gives the uncertainty stated by the source.

Assay: xn = mol fraction of the nth substance listed

CC#N + CCCC[n+]1ccn(C)c1.F[B-](F)(F)F
electrical conductivity (298.15 K, 100 kPa, x2 = 0): 0.0002 ± 0.0001 S/m | viscosity (298.15 K, 100 kPa, x2 = 0): 0.37 ± 0.0047 mPa·s | viscosity (333.15 K, 101 kPa, x1 = 1): 0.257 ± 0.004 mPa·s

CC(=O)c1ccccc1 + CCCC[n+]1ccn(C)c1.F[B-](F)(F)F
viscosity (293.15 K, 100 kPa, x1 = 0.0513): 79 ± 16 mPa·s | viscosity (293.15 K, 100 kPa, x1 = 0.1001): 56 ± 11 mPa·s | viscosity (293.15 K, 100 kPa, x1 = 0.2046): 43.6 ± 8.7 mPa·s | viscosity (293.15 K, 100 kPa, x1 = 0.306): 42.4 ± 8.5 mPa·s | viscosity (293.15 K, 100 kPa, x1 = 0.3976): 41.7 ± 8.3 mPa·s | viscosity (293.15 K, 100 kPa, x1 = 0.5064): 34.4 ± 6.9 mPa·s | viscosity (293.15 K, 100 kPa, x1 = 0.6079): 29.5 ± 5.9 mPa·s | viscosity (293.15 K, 100 kPa, x1 = 0.7065): 26 ± 5.2 mPa·s | viscosity (293.15 K, 100 kPa, x1 = 0.8054): 22.3 ± 4.5 mPa·s | viscosity (293.15 K, 100 kPa, x1 = 0.9026): 11.8 ± 2.4 mPa·s | viscosity (293.15 K, 100 kPa, x1 = 0.9516): 7 ± 1.4 mPa·s | viscosity (293.15 K, 100 kPa, x1 = 1): 1.91 ± 0.38 mPa·s | viscosity (303.15 K, 100 kPa, x1 = 0.0513): 50 ± 10 mPa·s | viscosity (303.15 K, 100 kPa, x1 = 0.1001): 38.6 ± 7.7 mPa·s | viscosity (303.15 K, 100 kPa, x1 = 0.2046): 30.8 ± 6.2 mPa·s | viscosity (303.15 K, 100 kPa, x1 = 0.306): 28.6 ± 5.7 mPa·s | viscosity (303.15 K, 100 kPa, x1 = 0.3976): 25.9 ± 5.2 mPa·s | viscosity (303.15 K, 100 kPa, x1 = 0.5064): 21.3 ± 4.3 mPa·s | viscosity (303.15 K, 100 kPa, x1 = 0.6079): 16.9 ± 3.4 mPa·s | viscosity (303.15 K, 100 kPa, x1 = 0.7065): 13.7 ± 2.7 mPa·s | viscosity (303.15 K, 100 kPa, x1 = 0.8054): 11.7 ± 2.3 mPa·s | viscosity (303.15 K, 100 kPa, x1 = 0.9026): 8 ± 1.6 mPa·s | viscosity (303.15 K, 100 kPa, x1 = 0.9516): 5 ± 1 mPa·s | viscosity (303.15 K, 100 kPa, x1 = 1): 1.65 ± 0.33 mPa·s | viscosity (313.15 K, 100 kPa, x1 = 0.0513): 30.5 ± 6.1 mPa·s | viscosity (313.15 K, 100 kPa, x1 = 0.1001): 21.6 ± 4.3 mPa·s | viscosity (313.15 K, 100 kPa, x1 = 0.2046): 19 ± 3.8 mPa·s | viscosity (313.15 K, 100 kPa, x1 = 0.306): 16.9 ± 3.4 mPa·s | viscosity (313.15 K, 100 kPa, x1 = 0.3976): 11.8 ± 2.4 mPa·s | viscosity (313.15 K, 100 kPa, x1 = 0.5064): 10.8 ± 2.2 mPa·s | viscosity (313.15 K, 100 kPa, x1 = 0.6079): 9.8 ± 2 mPa·s | viscosity (313.15 K, 100 kPa, x1 = 0.7065): 8.3 ± 1.7 mPa·s | viscosity (313.15 K, 100 kPa, x1 = 0.8054): 7.1 ± 1.4 mPa·s | viscosity (313.15 K, 100 kPa, x1 = 0.9026): 5.7 ± 1.1 mPa·s | viscosity (313.15 K, 100 kPa, x1 = 0.9516): 3.65 ± 0.73 mPa·s | viscosity (313.15 K, 100 kPa, x1 = 1): 1.37 ± 0.27 mPa·s | viscosity (323.15 K, 100 kPa, x1 = 0.0513): 20.4 ± 4.1 mPa·s | viscosity (323.15 K, 100 kPa, x1 = 0.1001): 15.4 ± 3.1 mPa·s | viscosity (323.15 K, 100 kPa, x1 = 0.2046): 13.7 ± 2.7 mPa·s | viscosity (323.15 K, 100 kPa, x1 = 0.306): 12.2 ± 2.4 mPa·s | viscosity (323.15 K, 100 kPa, x1 = 0.3976): 9.7 ± 1.9 mPa·s | viscosity (323.15 K, 100 kPa, x1 = 0.5064): 7.6 ± 1.5 mPa·s | viscosity (323.15 K, 100 kPa, x1 = 0.6079): 6.5 ± 1.3 mPa·s | viscosity (323.15 K, 100 kPa, x1 = 0.7065): 5.4 ± 1.1 mPa·s | viscosity (323.15 K, 100 kPa, x1 = 0.8054): 4.79 ± 0.96 mPa·s | viscosity (323.15 K, 100 kPa, x1 = 0.9026): 3.81 ± 0.76 mPa·s | viscosity (323.15 K, 100 kPa, x1 = 0.9516): 2.8 ± 0.56 mPa·s | viscosity (323.15 K, 100 kPa, x1 = 1): 1.17 ± 0.23 mPa·s | viscosity (333.15 K, 100 kPa, x1 = 0.0513): 12.9 ± 2.6 mPa·s | viscosity (333.15 K, 100 kPa, x1 = 0.1001): 11.5 ± 2.3 mPa·s | viscosity (333.15 K, 100 kPa, x1 = 0.2046): 10.3 ± 2.1 mPa·s | viscosity (333.15 K, 100 kPa, x1 = 0.306): 9.2 ± 1.8 mPa·s | viscosity (333.15 K, 100 kPa, x1 = 0.3976): 6.7 ± 1.4 mPa·s | viscosity (333.15 K, 100 kPa, x1 = 0.5064): 6.2 ± 1.2 mPa·s | viscosity (333.15 K, 100 kPa, x1 = 0.6079): 5.7 ± 1.1 mPa·s | viscosity (333.15 K, 100 kPa, x1 = 0.9026): 3.23 ± 0.65 mPa·s | viscosity (333.15 K, 100 kPa, x1 = 0.9516): 2.22 ± 0.44 mPa·s | viscosity (333.15 K, 100 kPa, x1 = 1): 1.02 ± 0.2 mPa·s
